These results are taken from patent US4973587A, “3-arylcarbonyl-1-aminoalkyl-1H-indole-containing antiglaucoma method” (Sterling Drug Inc., priority 1990, dated 1990).

One assay has as its system mouse vas deferens. In words: mouse vas deferens test (MVD). It is filed as cell-based. The settings on record: inhibition of contractions in mouse vas deferens preparation in vitro, active at 5.0 μM or less. From the text: (§1) Med. Assoc. 217, 1392 (1971)]. […] Opth 7, 921-923 (1975); Green and Pederson, Effect of delta-9 Tetrahydrocannabinol on Aqueous Dynamics and Ciliary Body Permeability in the Rabbit Eye., Exptl. Eye Research 15, 499-507 (1973); Colasanti, Craig and Allara, Intraocular Pressure, Ocular Toxicity and Neurotoxicity after Administration of Cannabinol or Cannibigerol, Exptl. Eye Research 39, 252-259 (1984)]. Similarly, synthetic cannabinoids also reduce intraocular pressure [Green, Symunds, Oliver and Elijah, Intraocular Pressure Following Systemic Administration of Cannabinoids, Curr. Eye Research 2, 247-253 (1982); Tiedeman, Shields, Weber, Crow, Coccetto, Harris and Howes, Ophthalmology., 88, 270-277 (1981); Colasanti et al., supra]. Cannabinoid receptor binding sites can be defined as those to which radio-labelled 4-(1,1-dimethylheptyl)-2,3'-dihydroxy-6'alpha-(3-hydroxypropyl)-1',2',3',4',5',6'-hexahydrobiphenyl (CP 55940) binds in a specific and saturable manner, and the binding sites are heterogeneously distributed in the brain [Devane, Dysarz, Johnson, Melvin and Howlett, Determination and Characterization of a Cannabinoid Receptor in Rat Brain, Molecular Pharm. 34, 605-613 (1988)]. Natural and synthetic cannabinoids and representative examples of the compounds of the present invention bind to CP 55940 binding sites. […] It is believed that agonist activity at the cannabinoid receptor mediates the anti-glaucoma actions of cannabinoids, and that agonist activity at this receptor correlates with ocular pressure lowering actions in man.

For assay [1], the target named is T1, cannabinoid receptor (CP 55940 binding sites) (Rattus norvegicus, UniProt P20272).
T1 construct: from tissue
T1 sequence (P20272 whole entry): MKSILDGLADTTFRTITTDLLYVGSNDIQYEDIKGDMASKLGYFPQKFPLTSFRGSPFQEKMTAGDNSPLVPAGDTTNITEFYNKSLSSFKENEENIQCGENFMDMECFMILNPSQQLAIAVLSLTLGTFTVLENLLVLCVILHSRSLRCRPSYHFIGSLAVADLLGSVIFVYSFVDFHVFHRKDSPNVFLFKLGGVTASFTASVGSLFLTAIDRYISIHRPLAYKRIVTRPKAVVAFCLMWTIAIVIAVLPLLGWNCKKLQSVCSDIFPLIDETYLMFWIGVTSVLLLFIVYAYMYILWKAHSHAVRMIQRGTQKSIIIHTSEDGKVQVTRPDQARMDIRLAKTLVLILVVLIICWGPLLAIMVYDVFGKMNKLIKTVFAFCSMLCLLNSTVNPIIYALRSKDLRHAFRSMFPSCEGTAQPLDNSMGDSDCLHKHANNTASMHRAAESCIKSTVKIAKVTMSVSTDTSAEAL
In words: CP55490 binding assay (CP). The settings on record: for inhibition at 1 µM: read-out: CP % I; for IC50: CP55490 binding assay.
Excerpt: as §1

The next assay has as its system intraocular pressure. Conditions: topical application or systemic injection; cited from earlier work.

Where only a bound is given, the exact number is not on record here.

As for `COc1ccc(C(=O)c2cn(CCN3CCOCC3)c3ccccc23)cc1` [Example 1A, 3-(4-methoxybenzoyl)-1-[2-(4-morpholinyl)ethyl]1H-indole methanesulfonate monohydrate], inhibition in the assay with mouse vas deferens (Mus musculus) was half-maximal at 100 nM (IC50). The inhibition at 1 µM in assay [1] worked out at 59%. Regarding `Cc1c(C(=O)c2cccc3ccccc23)c2ccccc2n1CCN1CCOCC1` [Example 1AP], the IC50 in the assay with mouse vas deferens (Mus musculus) was found to be 15 nM; in assay [1] it was 51 nM. Take `COc1ccc(C(=O)c2c(C)n(CCN3CCOCC3)c3ccccc23)cc1` [Example 1B]: the figures for the IC50 (in the assay with mouse vas deferens; in assay [1]) were 500 nM and 3000 to 10000 nM, respectively. `COc1ccc(C(=O)c2c(C)n(CCN3CCOCC3)c3ccccc23)c(OC)c1OC` [Example 1CA] registered an IC50 in the assay with mouse vas deferens (Mus musculus) of 70 nM. Further, in assay [1], the inhibition at 1 µM worked out at 70%. For `Cc1c(C(=O)c2csc3ccccc23)c2ccccc2n1CCN1CCOCC1` [Example 1Q], the IC50 with mouse vas deferens (Mus musculus) is 18 nM; in assay [1], about 50 nM. The compound `Cc1c(C(=O)c2ccnc3ccccc23)c2ccccc2n1CCN1CCOCC1` [Example 2BE] had a concentration for half-maximal inhibition (IC50) in the assay on mouse vas deferens (Mus musculus) of 115 nM. That is a sub-micromolar value. In turn, `O=C(c1ccc2ncccc2c1)c1cn(CCN2CCOCC2)c2ccccc12` [Example 2BF] gave a half-inhibitory concentration (IC50) in the assay on mouse vas deferens (Mus musculus) of 142 nM. Still for that read-out and setting: with `O=C(c1cccc2ccccc12)c1c(Cl)n(CCN2CCOCC2)c2ccccc12` [Example 2BG] the figure was 6 nM. As to `Cc1c(C(=O)c2ccc3cccnc3c2)c2ccccc2n1CCN1CCOCC1` [Example 2BH], the IC50 in the assay on mouse vas deferens is 88 nM. As for `Cc1c(C(=O)c2cccc3ccoc23)c2ccccc2n1CCN1CCOCC1` [Example 2BI], the IC50 in the assay on mouse vas deferens (Mus musculus) was 17 nM. As for `O=C(c1cccc2occc12)c1cn(CCN2CCOCC2)c2ccccc12` [Example 2BJ], inhibition in the assay with mouse vas deferens (Mus musculus) was half-maximal at 7 nM (IC50). This IC50 lies about 2.4-fold lower than the previous one. In turn, `O=C(c1ccc2ccoc2c1)c1cn(CCN2CCOCC2)c2ccccc12` [Example 2BK] had a concentration for half-maximal inhibition (IC50) with mouse vas deferens (Mus musculus) of 40 nM. `O=C(c1cn(CCN2CCOCC2)c2ccccc12)c1cccc2ccoc12` [Example 2BL]: the half-inhibitory concentration (IC50) in the assay with mouse vas deferens (Mus musculus) worked out at 4 nM. Compared with the last compound, the IC50 is about 10-fold lower. Compound `Cc1c(C(=O)Cc2ccccc2)c2ccccc2n1CCN1CCOCC1` [Example 2BM] gave an IC50 in the assay with mouse vas deferens (Mus musculus) of 174 nM. As to `COc1ccc(C=CC(=O)c2c(C)n(CCN3CCOCC3)c3ccccc23)cc1` [Example 2BN], in the assay on mouse vas deferens (Mus musculus), it took 138 nM to reach half-maximal inhibition (IC50). Same read-out and setting: the value for `Cc1c(C(=O)C=Cc2cccc3ccccc23)c2ccccc2n1CCN1CCOCC1` [Example 2BO] was 130 nM. As for `O=C(c1cn(CCN2CCOCC2)c2ccccc12)C1CCCc2ccccc21` (stereo not drawn) [Example 2BP], in the assay with mouse vas deferens (Mus musculus), it took 10 nM to reach half-maximal inhibition (IC50). As for `O=C(c1ccccc1F)c1cn(CCN2CCOCC2)c2ccccc12` [Example 2BQ], half-maximal inhibition in the assay on mouse vas deferens (Mus musculus) (IC50) was put at 500 nM. Compared with the last compound, the IC50 is about 50-fold higher. In the assay with mouse vas deferens (Mus musculus), `O=C(c1ccc2occc2c1)c1cn(CCN2CCOCC2)c2ccccc12` [Example 2BR] yielded an IC50 of 30 nM. Compound `COCc1ccc(C(=O)c2c(C)n(CCN3CCOCC3)c3ccccc23)cc1` [Example 2BW] had an IC50 with mouse vas deferens (Mus musculus) of 900 nM. On the same count and under the same terms, the value for `Cc1ccc(C(=O)c2c(C)n(CCN3CCOCC3)c3ccccc23)c2ccccc12` [Example 2CA] was 9 nM; that for `Cc1ccc(C(=O)c2cn(CCN3CCOCC3)c3ccccc23)c2ccccc12` [Example 2CB] was 3 nM.

`O=C(c1cccc2cc(Cl)ccc12)c1cn(CCN2CCOCC2)c2ccccc12` [Example 2CE] returned a half-maximal inhibitory concentration (IC50) in the assay on mouse vas deferens (Mus musculus) of 88 nM. Turning to `Cc1c(C(=O)c2ccc(Cl)cc2Cl)c2ccccc2n1CCN1CCOCC1` [Example 2CF], in the assay with mouse vas deferens (Mus musculus), 200 nM corresponded to half-maximal inhibition (IC50). This IC50 is about 2.3-fold higher than that of the compound before. Regarding `Cc1c(C(=O)c2cc3ccc4cccc5ccc(c2)c3c45)c2ccccc2n1CCN1CCOCC1` [Example 2CG], the half-inhibitory concentration (IC50) in the assay on mouse vas deferens (Mus musculus) was found to be 40 nM. Take `Cc1c(C(=O)c2ccccc2Cl)c2ccccc2n1CCN1CCOCC1` [Example 2CH]: half-maximal inhibition in the assay with mouse vas deferens (Mus musculus) (IC50) required 91 nM. As to `O=C(c1ccc2ccccc2c1)c1cn(CCN2CCOCC2)c2ccccc12` [Example 2CJ], in the assay with mouse vas deferens (Mus musculus), the midpoint of inhibition, the IC50, lay at 31 nM.

Regarding `Cc1c(C(=O)c2ccccc2F)c2ccccc2n1C(C)CN1CCOCC1` (stereo not drawn) [Example 2C], the 50% inhibitory concentration (IC50) with mouse vas deferens was 490 nM. `CC(CN1CCOCC1)n1cc(C(=O)c2ccccc2F)c2ccccc21` (stereo not drawn) [Example 2E] yielded an IC50 with mouse vas deferens (Mus musculus) of 2400 nM. That is a single-digit micromolar value. Compound `COc1ccc(C(=O)c2c(C)n(C(C)CN3CCOCC3)c3ccccc23)cc1` (stereo not drawn) [Example 2G] had an IC50 with mouse vas deferens (Mus musculus) of 1300 nM. The same measure, in the same setting: the value for `Cc1cccc2c(C(=O)c3ccccc3)cn(C(C)CN3CCOCC3)c12` (stereo not drawn) [Example 2H] was 177 nM; that for `Cc1ccccc1C(=O)c1c(C)n(CCN2CCOCC2)c2ccccc12` [Example 2K] was 710 nM; that for `Cc1c(C(=O)c2coc3ccccc23)c2ccccc2n1CCN1CCOCC1` [Example 2N] was 52 nM. The same measure, in the same setting: with `COc1ccc(C(=O)c2c(Cl)n(CCN3CCOCC3)c3ccccc23)cc1` [Example 2Q] the figure was 176 nM; with `Cc1c(C(=O)c2cccc3ccccc23)c2ccccc2n1C(C)CN1CCOCC1` (stereo not drawn) [Example 2Y], 10 nM.

For `O=C(c1cccc2ccccc12)c1cn(CCN2CCOCC2)c2ccccc12` [Example 2Z], the IC50 amounted to 6 nM with mouse vas deferens (Mus musculus) and 88 nM in assay [1]. With `Cc1c(C(=O)c2cccc3ccccc23)c2ccccc2n1CCN1CCCCC1` [Example 3A, 2-methyl-3-(1-naphthylcarbonyl)-1-[2-(1-piperidinyl)ethyl]-1H-indole], in the assay with mouse vas deferens (Mus musculus), the IC50 amounted to 66 nM. Regarding `COc1ccc(C(=O)c2c(C)n(CCN3CCCC(O)C3)c3ccccc23)cc1` (stereo not drawn) [Example 3B], the IC50 with mouse vas deferens (Mus musculus) is over 10000 nM. For the compound `Cc1c(C(=O)c2cccc3ccccc23)c2ccccc2n1CCN1CCCC(O)C1` (stereo not drawn) [Example 3D], the IC50 is 236 nM in the assay on mouse vas deferens (Mus musculus) and 200 to 500 nM in assay [1]. As to `Cc1c(C(=O)c2cccc3ccccc23)c2ccccc2n1CCN1CCOC(C)C1` (stereo not drawn) [Example 3E], the 50% inhibitory concentration (IC50) in the assay on mouse vas deferens (Mus musculus) is 210 nM.

For the compound `CCN(CC)CCCn1c(C)c(C(=O)c2ccc(OC)cc2)c2ccccc21` [Example 3J], the IC50 in the assay on mouse vas deferens (Mus musculus) is over 10000 nM. In turn, `Cc1c(C(=O)c2cccc3ccccc23)c2ccccc2n1CCN1CCOCC1C` (stereo not drawn) [Example 3K] gave a half-maximal inhibitory concentration (IC50) in the assay with mouse vas deferens (Mus musculus) of 30 nM. In other words, the double-digit nanomolar range. The compound `Cc1c(C(=O)c2cccc(N)c2)c2ccccc2n1CCN1CCOCC1` [Example 4A, 2-methyl-3-(3-aminobenzoyl)-1-[2 (4-morpholinyl)ethyl]-1H-indole] had an IC50 with mouse vas deferens (Mus musculus) of 700 nM.

In the assay with mouse vas deferens (Mus musculus), `Cc1c(C(=O)c2ccc(N)cc2)c2ccccc2n1CCN1CCOCC1` [Example 4B, 2-methyl-3-(4-aminobenzoyl)-1-[2-(4morpholinyl)ethyl]-1H-indole] returned an IC50 of 520 nM. In turn, `Cc1c(C(=O)c2cccc(O)c2O)c2ccccc2n1CCN1CCOCC1` [Example 5A, 2-methyl-3-(2,3-dihydroxybenzoyl)-1-[2-(4-morpholinyl)ethyl]-1H-indole] returned a half-maximal inhibitory concentration (IC50) with mouse vas deferens (Mus musculus) of 180 nM. Compared with the last compound, the IC50 is about 2.9-fold lower. For `O=C(c1cccc2ccccc12)c1cn(CCN2CCOCC2)c2ccc(O)cc12` [Example 5B, 5-hydroxy-3-(1-naphthylcarbonyl)-1-[2-(4-morpholinyl)ethyl]-1H-indole], in the assay on mouse vas deferens (Mus musculus), the 50% inhibitory concentration (IC50) stood at 20 nM.

In the assay on mouse vas deferens (Mus musculus), `COc1ccc(C(=O)c2cn(CCN3CCOCC3)c3c(O)cccc23)cc1` [Example 5C, 7-hydroxy-3-(4-methoxybenzoyl)-1-[2-(4-morpholinyl)ethyl]-1H-indole] gave an IC50 of 400 nM. Compared with the last compound, the IC50 is about 20-fold higher. Still for that read-out and setting: the value for `Cc1c(C(=O)c2ccc(C#N)c3ccccc23)c2ccccc2n1CCN1CCOCC1` [Example 7A, 2-methyl-3-(4-cyano-1-naphthylcarbonyl)-1-[2-(4-morpholinyl)ethyl]-1H-indole] was 14 nM; that for `Cc1c(C(=O)c2ccc(-n3ccnc3)c3ccccc23)c2ccccc2n1CCN1CCOCC1` [Example 7B] was 5 nM. Consider `O=C(c1ccc(-n2ccnc2)c2ccccc12)c1cn(CCN2CCOCC2)c2ccccc12` [Example 7C], for which 8 nM corresponded to half-maximal inhibition in the assay with mouse vas deferens (Mus musculus) (IC50).

For `N#Cc1ccc(C(=O)c2cn(CCN3CCOCC3)c3ccccc23)c2ccccc12` [Example 7D], in the assay with mouse vas deferens (Mus musculus), the IC50 was 5 nM. The compound `COc1ccc(C(=S)c2c(C)n(CCN3CCOCC3)c3ccccc23)cc1` [Example 9, 2-methyl-3-(4-methoxyphenylthiocarbonyl)-1-[2-(4-morpholinyl)-ethyl]-1H-indole] had an IC50 in the assay with mouse vas deferens (Mus musculus) of 110 nM.

As for `CCCCCc1cc(O)c2c(c1)OC(C)(C)[C@@H]1CCC(C)=C[C@@H]21` [delta-9 tetrahydrocannabinol], the intraocular pressure entry in the assay on intraocular pressure is recorded as “reduces intraocular pressure”.

By IC50 is commonly meant the concentration that gives 50% inhibition. Read a low IC50 as higher potency.
